Assay results reported in the NIST ThermoML archive (doi:10.1021/je1004643).
Numbers after ± are expanded uncertainties.

How the values were obtained:
[1] = Liquid; for mass density: 298.15 K, 101.33 kPa; for Normal boiling temperature: Ebulliometric method (Recirculating still)
[2] = refractive index (Na D-line) (dimensionless); conditions: 298.15 K; 101.33 kPa; Liquid; Standard Abbe refractometry

CCC(C)O (stereo unspecified) [butan-2-ol]
mass density [1]: 802.35 ± 0.79 kg/m3 | Normal boiling temperature [1]: 99.41 ± 0.3 °C | refractive index [2]: 1.3951 ± 0.0005

CCC(C)=O [butanone]
mass density [1]: 799.62 ± 0.46 kg/m3 | Normal boiling temperature [1]: 79.53 ± 0.3 °C | refractive index [2]: 1.3761 ± 0.0005
